Source: PubChem BioAssay AID1963838 (Molecular Pharmacology Branch, DTP, NCI, 2024)
Where “and” joins values, the source holds several entries; their conditions need not be identical. Identical values can stand only once.

System: 855422-203-R-J1-PDC complex spheroid viability
Assay: Anticancer human tumor 855422-203-R-J1-PDC patient-derived bladder carcinoma cell line growth inhibition [POLQ]
Conditions: for viability, T/C: stronger effect = lower value
Experimental: Multicellular complex tumor spheroid response to Polymerase (POL) inhibitors (novobiocin, ART-558, RP6685) in combination with a variety of drugs and investigational agents in selected tumor cell lines
The POL inhibitors (novobiocin, ART-558, and RP6685) were evaluated both individually and in combination with standard of care and investigational anticancer small molecules within a complex spheroid model of solid tumors. . Complex spheroids include a stromal component modeled by human endothelial cells (HUVEC) and fibroblasts modeled by human mesenchymal stem cells (MSCs). The concentration ranges selected for each drug and investigational agent were based upon clinically achievable concentrations if the clinical Cmax of the agent was known.
Compounds. The drugs and investigational agents: novobiocin (NSC847541), ART-558 (NSC835418), RP-6685 (NSC848927), peposertib (NSC802822), ceralasertib (NSC780249), elimusertib (NSC800525), camonsertib (NSC841442), AZD-1390 (NSC803789), olaparib (NSC753686), talazoparib (NSC767125), rucaparib (NSC756644), sotorasib (NSC818433), MRTX-1133 (NSC836407), SN-38 (NSC673596), topotecan (NSC609699), epotoside (NSC141540), doxorubicin (NSC123127), gemcitabine (NSC613327), 5-fluorouracil (NSC19893), paclitaxel (NSC125973), vemurafenib (NSC761431), MSA-2 (NSC828583), SN-011 (NSC837082), adavosertib (NSC754352), prexasertib (NSC758257), carboplatin (NSC241240) and oxaliplatin (NSC266046), were obtained from the National Cancer Institute (NCI) Developmental Therapeutics Program Chemical Repository (21). The FDA-approved anticancer drug set is available from the Developmental Therapeutics Program at https://dtp.cancer.gov/organization/dscb/obtaining/. […] The stock solutions were prepared in dimethyl sulfoxide (DMSO, Sigma-Aldrich, St. Louis, MO, cat. D2650), except for the platinum compounds which were prepared in saline (Quality Biological, Gaithersburg, MD, cat. 114-055-101), at 800-fold the tested concentration and stored at -70 degrees C prior to their use. All drugs and investigational agents were tested over a range starting from a high concentration at or near the clinical Cmax and decreasing in half-log increments. If the clinical Cmax for an agent had not been determined, the highest concentration tested was 10 microM, except for SN-38, which was tested at a high concentration of 1 microM.
Cell Culture. All cells were maintained in an incubator at 37 degrees C and 5% CO2 with 95% humidity. The PDC lines were cultured according to standard operating procedures established by the NCI PDMR (https://pdmr.cancer.gov). Table 3 of the manuscript, lists the cell lines along with the number of the three cell types plated to form the mct-spheroids and media for tumor cell growth. After thawing, all PDC lines, except 997537-175-T-J1-PDC and 415267-285-R-J2-PDC, were cultured in Matrigel-coated flasks prepared with a working solution of 1X Ham's F-12 nutrient mix, without supplementation (Thermo Fisher Scientific, cat. 11765054), 100 U/mL penicillin-streptomycin (Thermo Fisher Scientific, cat. 15140122), and 2.5% Matrigel (Corning Inc., Corning, NY, cat. 354248) for the first three passages. The two PDC lines 997537-175-T-J1-PDC and 415267-285-R-J2-PDC were cultured on uncoated flasks. The 857933-349-R-J2-PDC line was cultured in 6C/Colon 1B media containing advanced DMEM/F-12 (Thermo Fisher Scientific, cat. 12634028), 10 mM HEPES (Thermo Fisher Scientific, cat. 15630080), 1X GlutaMAX supplement (Thermo Fisher Scientific, cat. 35050061), 0.1 mg/mL primocin (InvivoGen, San Diego, CA, cat. ant-pm-2), 10% defined fetal bovine serum, heat inactivated (HyClone Laboratories Inc., Logan, UT, cat. SH30070.03HI), 50% L-WRN conditioned media (ATCC, cat. CRL-3276), 1.25 mM N-Acetyl-L-cysteine (Sigma-Aldrich, cat. A9165), 10 mM nicotinamide (Sigma-Aldrich, cat. N0636), 1X B-27 supplement (Thermo Fisher Scientific, cat. 17504044), 1X N-2 supplement (Thermo Fisher Scientific, cat. […]

[1] = compound alone, run of 01/08/2024
[2] = compound alone, run of 01/19/2024
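Also: spheroids exposed to compounds for seven days before readout.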

SMILES | viability, T/C (compound 0.0316 µM) | viability, T/C (compound 0.1 µM) | viability, T/C (compound 0.316 µM) | viability, T/C (compound 1 µM) | viability, T/C (compound 3.16 µM) | viability, T/C (compound 10 µM) | IC50 (curve of compound) | IC50 [1] [nM] | viability, T/C (compound 0.00316 µM) | viability, T/C (compound 0.01 µM) | IC50 [2] [nM] | viability, T/C (compound 0.000316 µM) | viability, T/C (compound 0.001 µM)
CNCc1ccc(-c2[nH]c3cc(F)cc4c3c2CCNC4=O)cc1 | 98.8% and 101% and 112% | 98.1% and 100% and 101% | 114% and 108% and 99.2% | 115% and 103% and 99.8% | 105% and 88.8% and 114% | 114% and 137% and 126% | > 10000 nM | – | – | – | – | – | –
COC1C(OC(N)=O)C(O)C(Oc2ccc3c(O)c(NC(=O)c4ccc(O)c(CC=C(C)C)c4)c(=O)oc3c2C)OC1(C)C (stereo unspecified) | 105% [middle of 13 runs] | 108% [middle of 13 runs] | 111% [middle of 13 runs] | 106% [middle of 13 runs] | 104% [middle of 13 runs] | – | – | > 10000 | – | – | – | – | –
COc1cc(C2c3cc4c(cc3C(OC3OC5COC(C)OC5C(O)C3O)C3COC(=O)C23)OCO4)cc(OC)c1O (stereo unspecified) | 99.8% and 116% and 97.3% | 92.7% and 114% and 91% | 31.5% and 78.4% and 34% | 9.39% and 19.9% and 12.1% | 7.03% and 8.72% and 9.59% | 4.41% and 6.81% and 5.26% | 224 nM and 553 nM and 229 nM | – | – | – | – | – | –
COc1cc2cc(C(=O)CCC(=O)O)sc2cc1OC | 93.5% and 102% and 106% | 128% and 88.2% and 104% | 98.3% and 108% and 107% | 97.8% and 87.2% and 98.9% | 111% (2×) and 106% | 112% and 119% and 102% | > 10000 nM | – | – | – | – | – | –
COc1ccc([C@@H](O)c2cc(-c3ncnc4cc(N5CCOCC5)ccc34)c(F)cc2Cl)nn1 | 86.6% and 104% and 118% | 103% and 107% and 96.5% | 94.5% and 103% and 109% | 87.2% and 91.5% and 88.8% | 60.9% and 109% and 69.5% | 32% and 58.2% and 37.4% | 4870 nM and > 10000 nM and 6350 nM | – | – | – | – | – | –
COc1cccc(OCCCN)c1-c1cc(Nc2cnc(C#N)cn2)n[nH]1 | 12.2% and 23.8% and 37.9% | 9.96% and 13.6% and 17.5% | 5.57% and 7.75% and 6.55% | 4.87% and 6.23% and 5.82% | – | – | 17.7 nM and 23 nM and 26.6 nM | – | 108% and 98.1% and 104% | 86.8% and 138% and 132% | – | – | –
COc1cccc2c1C(=O)c1c(O)c3c(c(O)c1C2=O)CC(O)(C(=O)CO)CC3OC1CC(N)C(O)C(C)O1 (stereo unspecified) | 20.9% and 28.2% and 13.1% | 9.22% and 14.2% and 10.2% | 3.11% and 2.95% and 2.47% | 0.45% and 0.73% and 0.38% | 0.69% and 0.96% and 0.43% | 3.06% and 2.86% and 1.27% | < 31.6 nM | – | – | – | – | – | –
Cc1cccc(N(C)C(=O)C2C(O)CCN2c2nc(C)cc(C(F)(F)F)c2C#N)c1 (stereo unspecified) | 107% [middle of 13 runs] | – | 106% [middle of 13 runs] | 102% [middle of 13 runs] | 102% [middle of 13 runs] | 103% [middle of 13 runs] | – | > 10000 | – | – | > 10000 | – | –
Cn1ncnc1[C@H]1c2n[nH]c(=O)c3cc(F)cc(c23)N[C@@H]1c1ccc(F)cc1 | 102% and 93.4% and 118% | 96.6% and 134% and 88.6% | – | – | – | – | > 100 nM | – | 108% and 105% and 111% | 108% and 122% and 110% | – | 108% and 99.8% and 105% | 97% and 116% and 97.1%
Nc1ccc(C#CCN(C(=O)Cc2ncc(C(F)(F)F)cc2C(F)(F)F)c2ccc(F)cc2)nn1 | 101% [middle of 13 runs] | 104% [middle of 13 runs] | 107% [middle of 13 runs] | – | 95.7% [middle of 13 runs] | 90.4% [middle of 13 runs] | – | – | – | – | > 10000 | – | –
Nc1ccn(C2OC(CO)C(O)C2(F)F)c(=O)n1 (stereo unspecified) | 81.1% and 75.1% and 69.6% | 41.7% and 19.3% and 37.9% | 17.7% and 14.3% and 12.9% | 13.3% and 13.5% and 11.3% | 7.69% and 9.12% and 7.82% | 6.31% and 7.6% and 6.51% | 77.7 nM and 53.1 nM and 64.2 nM | – | – | – | – | – | –
O=C(Nc1ccc(O)c(NS(=O)(=O)c2ccc(F)cc2)c1)c1ccc(-c2ccccc2)cc1 | 106% and 92.6% and 110% | 118% and 99.2% and 113% | 98.8% and 110% and 113% | 112% and 108% and 97.7% | 99.4% and 106% and 92.8% | 74% and 70.5% and 45.6% | > 10000 nM and 9080 nM | – | – | – | – | – | –
O=C(c1cc(Cc2n[nH]c(=O)c3ccccc23)ccc1F)N1CCN(C(=O)C2CC2)CC1 | 109% and 103% and 94% | 107% and 106% and 112% | 92.1% and 100% and 112% | 108% and 103% and 98.3% | 106% and 98.1% and 124% | 82.5% and 70% and 121% | > 10000 nM | – | – | – | – | – | –
O=c1[nH]cc(F)c(=O)[nH]1 | 116% and 95.4% and 99.2% | 105% and 104% and 102% | 61.8% and 118% and 55.4% | 32.8% and 67% and 34.3% | 29.6% and 40.2% and 26.3% | 23.3% and 44.2% and 22.9% | 507 nM and 2200 nM and 405 nM | – | – | – | – | – | –
